Numbered stars: 1 amine (or outer) side, 2 acyl side, 3 side chain; on linkers, the order of the positions; unused ones are H or OH. Square brackets hold non-standard residues; d marks the D form. Peptide text beside a SMILES is read from it. * marks the point of attachment. ξ: configuration not given here. DOTA(Lu)NH(CH2)6NHCOCH2 = O=C(CN1CCN2CCN3CCN(CC1)CC(=O)[O][Lu]([O]C(=O)C2)[O]C(=O)C3)NCCCCCCNC(=O)C*; X6 = O=C(CN1CCN2CCN3CCN(CC1)CC(=O)[O][Lu]([O]C(=O)C2)[O]C(=O)C3)NCCOCCOCCOCCNC(=O)C*; X3 = O=C(O)CN1CCN(CC(=O)O)CCN(CC(=O)NCCCCCCNC(=O)C*)CCN(CC(=O)O)CC1; dTrp(βS-Me) = C[C@@H](c1c[nH]c2ccccc12)[C@@H](N)C(=O)O; X4 = C[C@@H](c1ccccc1)[C@H](N[*:1])C(=O)[*:2]; Phe(3R-Me) = C[C@H](c1ccccc1)[C@H](N)C(=O)O; X22 = O=C([C@H](Cc1ccc(O)nc1)N[*:1])[*:2]; dNMeW = CN[C@H](Cc1c[nH]c2ccccc12)C(=O)O; NMeF = CN[C@@H](Cc1ccccc1)C(=O)O; 3Pal = N[C@@H](Cc1cccnc1)C(=O)O; 4Pal = N[C@@H](Cc1ccncc1)C(=O)O; Gly(cBu) = N[C@H](C(=O)O)C1CCC1; ξThr(3R) = C[C@@H](O)C(N)C(=O)O; NMehCys = CN[C@@H](CCS)C(=O)O; NMeK = CN[C@@H](CCCCN)C(=O)O
These molecules were tested against SSTR2 (Homo sapiens, UniProt P30874) (assay: SSTR binding affinity by radioligand binding competition assay ([125I]-Tyr11-Somatostatin, membrane extracts)). Details: SSTR2 Ki, radioligand competition, [125I]-Tyr11-Somatostatin 0.1 nM, membrane extracts; Ki from IC50 by Cheng Prusoff.
Description: Macrocyclic peptides in this invention were tested for binding to SSTR protein by a radioligand binding competition assay. For radioligand binding assay, competition binding is performed in duplicate in the wells of a 96 well plate containing binding buffer (HEPES 25 mM pH 7.4, MgCl2 5 mM, CaCl2 1 mM, BSA 0.5%, Saponine 10 μg/ml)), membrane extracts (0.6 μg protein/well), radiotracer ([125I]-Tyr11-Somatostatin, Perkin Elmer NEX389) and test compound. Nonspecific binding is determined by co-incubation with 200-fold excess of cold competitor (SST28). The samples are incubated in a final volume of 0.1 ml for 60 min at room temperature and then filtered over UniFilter-96 GF/C (Revvity 6055690) filter plates. Filters are washed six times with 0.5 ml of ice-cold washing buffer (HEPES 25 mM pH 7.4, MgCl2 5 mM, CaCl2 1 mM) and 50 μl of Microscint 20 (Packard) are added in each well. The plates are incubated 15 min on an orbital shaker and then counted with a TopCount™ for 1 min/well. For IC50 to Ki determination, the Cheng Prusoff equation is used: Ki=IC50/(1+ [tracer]/Kd). [Tracer] is 0.1 nM as mentioned above.

Chain of SSTR2 (P30874 whole entry): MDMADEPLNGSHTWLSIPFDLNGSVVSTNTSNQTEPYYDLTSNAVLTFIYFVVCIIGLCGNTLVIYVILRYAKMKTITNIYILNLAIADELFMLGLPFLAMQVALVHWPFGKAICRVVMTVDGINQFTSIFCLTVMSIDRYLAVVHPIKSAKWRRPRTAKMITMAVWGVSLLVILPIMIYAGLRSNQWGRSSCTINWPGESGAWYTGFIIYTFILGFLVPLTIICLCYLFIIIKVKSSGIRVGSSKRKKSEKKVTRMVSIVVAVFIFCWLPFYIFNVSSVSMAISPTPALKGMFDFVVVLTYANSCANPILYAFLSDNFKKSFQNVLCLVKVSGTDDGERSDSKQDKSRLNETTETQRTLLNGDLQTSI

Structure (SMILES) | Ki
C[C@H](O)[C@@H]1NC(=O)[C@H](CCCCN)NC(=O)[C@@H](Cc2c[nH]c3ccccc23)NC(=O)[C@H](Cc2ccc(O)cc2)NC(=O)[C@H](CCSCC(=O)NCCCCCCNC(=O)CN2CCN3CCN4CCN(CC2)CC(=O)[O][Lu]([O]C(=O)C3)[O]C(=O)C4)N(C)C(=O)[C@H](Cc2ccccc2)NC1=O [RB-0003464] | < 1 nM

Same assay, conditions: radioligand competition, [125I]-Tyr11-Somatostatin 0.1 nM, membrane extracts; Ki from IC50 by Cheng Prusoff; read-out: SSTR2 Ki

Structure (SMILES) | Ki
C[C@@H](O)[C@@H]1NC(=O)[C@H](CCCCN)NC(=O)[C@@H](Cc2c[nH]c3ccccc23)NC(=O)[C@H](Cc2ccc(O)cc2)NC(=O)[C@H](CCSCCC(=O)NCCCCC[C@H](NC(=O)CN2CCN3CCN4CCN(CC2)CC(=O)[O][Lu]([O]C(=O)C3)[O]C(=O)C4)C(=O)O)N(C)C(=O)[C@H](Cc2ccccc2)NC1=O [RB-0003375] | 1 to 3.33 nM
C[C@@H](O)[C@@H]1NC(=O)[C@H](CCCCN)NC(=O)[C@@H]([C@@H](C)c2c[nH]c3ccccc23)NC(=O)[C@H](Cc2ccncc2)NC(=O)[C@H](CCSCC(=O)NCCCCCCNC(=O)CN2CCN3CCN4CCN(CC2)CC(=O)[O][Lu]([O]C(=O)C3)[O]C(=O)C4)N(C)C(=O)[C@H](Cc2ccccc2)NC1=O [RB-0003381] (cyclo([4Pal][dTrp(βS-Me)]KTF[NMehCys](DOTA(Lu)NH(CH2)6NHCOCH2))) | < 1 nM
C[C@@H](O)[C@@H]1NC(=O)[C@H](CCCCN)NC(=O)[C@@H]([C@@H](C)c2c[nH]c3ccccc23)NC(=O)[C@H](Cc2cccnc2)NC(=O)[C@H](CCSCC(=O)NCCCCCCNC(=O)CN2CCN3CCN4CCN(CC2)CC(=O)[O][Lu]([O]C(=O)C3)[O]C(=O)C4)N(C)C(=O)[C@H](Cc2ccccc2)NC1=O [RB-0003382] (cyclo([3Pal][dTrp(βS-Me)]KTF[NMehCys](DOTA(Lu)NH(CH2)6NHCOCH2))) | < 1 nM
C[C@H](c1ccccc1)[C@@H]1NC(=O)[C@H](CCSCC(=O)NCCCCCCNC(=O)CN2CCN3CCN4CCN(CC2)CC(=O)[O][Lu]([O]C(=O)C3)[O]C(=O)C4)N(C)C(=O)[C@H](Cc2ccccc2)NC(=O)[C@H]([C@@H](C)O)NC(=O)[C@H](CCCCN)NC(=O)[C@@H]([C@@H](C)c2c[nH]c3ccccc23)NC1=O [RB-0003383] (cyclo(F[NMehCys](DOTA(Lu)NH(CH2)6NHCOCH2)[Phe(3R-Me)][dTrp(βS-Me)]KT)) | < 1 nM
C[C@@H](O)[C@@H]1NC(=O)[C@H](CCCCN)NC(=O)[C@@H](Cc2c[nH]c3ccccc23)NC(=O)[C@H](Cc2ccncc2)NC(=O)[C@H](CCSCC(=O)NCCCCCCNC(=O)CN2CCN3CCN4CCN(CC2)CC(=O)[O][Lu]([O]C(=O)C3)[O]C(=O)C4)N(C)C(=O)[C@H](Cc2ccncc2)NC1=O [RB-0003443] (cyclo([4Pal][NMehCys](DOTA(Lu)NH(CH2)6NHCOCH2)[4Pal][dW]KT)) | 10 to 33.3 nM
C[C@@H](O)[C@@H]1NC(=O)[C@H](CCCCN)NC(=O)[C@@H](Cc2c[nH]c3ccccc23)NC(=O)[C@H](Cc2ccncc2)NC(=O)[C@H](CCSCC(=O)NCCCCCCNC(=O)CN2CCN3CCN4CCN(CC2)CC(=O)[O][Lu]([O]C(=O)C3)[O]C(=O)C4)N(C)C(=O)[C@H](Cc2cccnc2)NC1=O [RB-0003445] (cyclo([3Pal][NMehCys](DOTA(Lu)NH(CH2)6NHCOCH2)[4Pal][dW]KT)) | 3.33 to 10 nM
C[C@@H](O)[C@@H]1NC(=O)[C@H](CCCCN)NC(=O)[C@@H](Cc2c[nH]c3ccccc23)NC(=O)[C@H](Cc2ccncc2)NC(=O)[C@H](CCSCC(=O)NCCCCCCNC(=O)CN2CCN3CCN4CCN(CC2)CC(=O)[O][Lu]([O]C(=O)C3)[O]C(=O)C4)N(C)C(=O)[C@H]([C@@H](C)c2ccccc2)NC1=O [RB-0003447] (cyclo([4Pal][dW]KT[X4][NMehCys](DOTA(Lu)NH(CH2)6NHCOCH2))) | 3.33 to 10 nM
C[C@H](c1ccccc1)[C@@H]1NC(=O)[C@H]([C@@H](C)O)NC(=O)[C@H](CCCCN)NC(=O)[C@@H](Cc2c[nH]c3ccccc23)NC(=O)[C@H](Cc2ccncc2)NC(=O)[C@H](CCSCC(=O)NCCCCCCNC(=O)CN2CCN3CCN4CCN(CC2)CC(=O)[O][Lu]([O]C(=O)C3)[O]C(=O)C4)N(C)C1=O [RB-0003449] (cyclo([4Pal][dW]KT[Phe(3R-Me)][NMehCys](DOTA(Lu)NH(CH2)6NHCOCH2))) | 10 to 33.3 nM
C[C@@H](O)[C@@H]1NC(=O)[C@H](CCCCN)NC(=O)[C@@H](Cc2c[nH]c3ccccc23)NC(=O)[C@H](Cc2ccncc2)NC(=O)[C@H](CCSCC(=O)NCCCCCCNC(=O)CN2CCN3CCN4CCN(CC2)CC(=O)[O][Lu]([O]C(=O)C3)[O]C(=O)C4)N(C)C(=O)[C@H](Cc2ccc(O)nc2)NC1=O [RB-0003451] (cyclo([4Pal][dW]KT[X22][NMehCys](DOTA(Lu)NH(CH2)6NHCOCH2))) | 3.33 to 10 nM
C[C@@H](O)[C@@H]1NC(=O)[C@H](CCCCN)N(C)C(=O)[C@@H](Cc2c[nH]c3ccccc23)N(C)C(=O)[C@H](Cc2ccc(O)cc2)NC(=O)[C@H](CCSCC(=O)NCCCCCCNC(=O)CN2CCN3CCN4CCN(CC2)CC(=O)[O][Lu]([O]C(=O)C3)[O]C(=O)C4)N(C)C(=O)[C@H](Cc2ccccc2)NC1=O [RB-0003455] (cyclo(F[NMehCys](DOTA(Lu)NH(CH2)6NHCOCH2)Y[dNMeW][NMeK]T)) | < 1 nM
C[C@@H](O)[C@@H]1NC(=O)[C@H](CCCCN)NC(=O)[C@@H](Cc2c[nH]c3ccccc23)NC(=O)[C@H](Cc2ccc(O)cc2)NC(=O)[C@H](CCCSCC(=O)NCCCCCNC(=O)CN2CCN3CCN4CCN(CC2)CC(=O)[O][Lu]([O]C(=O)C3)[O]C(=O)C4)N(C)C(=O)[C@H](Cc2ccccc2)NC1=O [RB-0003482] | < 1 nM
C[C@@H](O)[C@@H]1NC(=O)[C@H](CCCCN)NC(=O)[C@@H](Cc2c[nH]c3ccccc23)NC(=O)[C@H](Cc2ccc(O)cc2)NC(=O)[C@H](CCCSCC(=O)NCCCCCCNC(=O)CN2CCN3CCN4CCN(CC2)CC(=O)[O][Lu]([O]C(=O)C3)[O]C(=O)C4)N(C)C(=O)[C@H](Cc2ccccc2)NC1=O [RB-0003484] | < 1 nM
C[C@@H](O)[C@@H]1NC(=O)[C@H](CCCCN)NC(=O)[C@@H](Cc2c[nH]c3ccccc23)NC(=O)[C@H](Cc2ccc(O)cc2)NC(=O)[C@H](CCCSCC(=O)NCCOCCNC(=O)CN2CCN3CCN4CCN(CC2)CC(=O)[O][Lu]([O]C(=O)C3)[O]C(=O)C4)N(C)C(=O)[C@H](Cc2ccccc2)NC1=O [RB-0003486] | < 1 nM
C[C@@H](O)[C@@H]1NC(=O)[C@H](CCCCN)NC(=O)[C@@H](Cc2c[nH]c3ccccc23)NC(=O)[C@H](Cc2ccncc2)NC(=O)[C@H](CCSCC(=O)NCCOCCOCCOCCNC(=O)CN2CCN3CCN4CCN(CC2)CC(=O)[O][Lu]([O]C(=O)C3)[O]C(=O)C4)N(C)C(=O)[C@H](Cc2ccccc2)NC1=O [RB-0003504] (cyclo([4Pal][dW]KTF[NMehCys](X6))) | 1 to 3.33 nM
C[C@@H](O)[C@@H]1NC(=O)[C@H](CCCCN)NC(=O)[C@@H](Cc2c[nH]c3ccccc23)NC(=O)[C@H](Cc2ccc(O)cc2)NC(=O)[C@H](CCCCCNC(=O)CN2CCN3CCN4CCN(CC2)CC(=O)[O][Lu]([O]C(=O)C3)[O]C(=O)C4)N(C)C(=O)[C@H](Cc2ccccc2)NC1=O [RB-0004536] | < 1 nM
C[C@@H](O)C1NC(=O)[C@H](CCCCN)N(C)C(=O)[C@@H](Cc2c[nH]c3ccccc23)N(C)C(=O)[C@H](Cc2ccc(O)cc2)NC(=O)[C@H](CCSCC(=O)NCCCCCCNC(=O)CN2CCN3CCN4CCN(CC2)CC(=O)[O][Lu]([O]C(=O)C3)[O]C(=O)C4)N(C)C(=O)[C@H](Cc2ccccc2)N(C)C1=O (stereo partly drawn) [RB-0004538] (cyclo([NMeF][NMehCys](DOTA(Lu)NH(CH2)6NHCOCH2)Y[dNMeW][NMeK][ξThr(3R)])) | 3.33 to 10 nM
CN1C(=O)[C@H](Cc2ccccc2)NC(=O)[C@H](C2CCC2)NC(=O)[C@H](CCCCN)NC(=O)[C@@H](Cc2c[nH]c3ccccc23)NC(=O)[C@H](Cc2ccc(O)cc2)NC(=O)[C@@H]1CCSCC(=O)NCCCCCCNC(=O)CN1CCN2CCN3CCN(CC1)CC(=O)[O][Lu]([O]C(=O)C2)[O]C(=O)C3 [RB-0004540] (cyclo(F[NMehCys](DOTA(Lu)NH(CH2)6NHCOCH2)Y[dW]K[Gly(cBu)])) | < 1 nM

Same assay, conditions: read-out: SSTR2 Ki

Ki | Structure (SMILES)
1 to 3.33 nM | C[C@@H](O)[C@@H]1NC(=O)[C@H](CCCCN)NC(=O)[C@@H]([C@@H](C)c2c[nH]c3ccccc23)NC(=O)[C@H](Cc2ccncc2)NC(=O)[C@H](CCSCC(=O)NCCCCCCNC(=O)CN2CCN(CC(=O)O)CCN(CC(=O)O)CCN(CC(=O)O)CC2)N(C)C(=O)[C@H](Cc2cccnc2)NC1=O [RB-0003407] (cyclo([3Pal][NMehCys](X3)[4Pal][dTrp(βS-Me)]KT))
1 to 3.33 nM | C[C@H](c1ccccc1)[C@@H]1NC(=O)[C@H]([C@@H](C)O)NC(=O)[C@H](CCCCN)NC(=O)[C@@H]([C@@H](C)c2c[nH]c3ccccc23)NC(=O)[C@H](Cc2ccncc2)NC(=O)[C@H](CCSCC(=O)NCCCCCCNC(=O)CN2CCN(CC(=O)O)CCN(CC(=O)O)CCN(CC(=O)O)CC2)N(C)C1=O [RB-0003408]
< 1 nM | C[C@@H](O)[C@@H]1NC(=O)[C@H](CCCCN)NC(=O)[C@@H]([C@@H](C)c2c[nH]c3ccccc23)NC(=O)[C@H](Cc2ccncc2)NC(=O)[C@H](CCSCC(=O)NCCCCCCNC(=O)CN2CCN(CC(=O)O)CCN(CC(=O)O)CCN(CC(=O)O)CC2)N(C)C(=O)[C@H]([C@@H](C)c2ccccc2)NC1=O [RB-0003409]
